According to patent publication US20220162167A1, “SUBSTITUTED BICYCLIC AND TETRACYCLIC QUINONES AND USE THEREOF AS ANTI-CANCER AGENTS” (THE REGENTS OF THE UNIVERSITY OF MICHIGAN, priority 2019, published 2022):

Tests used:
Assay type in all cases: cell-based
[1] = tested on: A549/ATCC; experiment: NCI60 growth inhibition, A549/ATCC; settings: Non-Small Cell Lung Cancer
Experimental: (§1) Representative compounds were tested in 60 cell lines (NCI60) at the National Cancer Institute, Developmental Therapeutics Program.
(§2) Representative compounds were tested in a panel of 60 cancer cells (NCI 60) at the National Cancer Institute. Growth inhibition are shown in table 2, table 3, table 4, table 5, and FIG. 1, FIG. 2, FIG. 3, FIG. 4, FIG. 5.

[2] = tested on: MDA-MB-231/ATCC; experiment: NCI60 growth inhibition, MDA-MB-231/ATCC; settings: Breast Cancer
Experimental: as §1, §2

[3] = tested on: BT-549; experiment: NCI60 growth inhibition, BT-549; settings: Breast Cancer
Experimental: as §1, §2

[4] = tested on: HOP-62; experiment: NCI60 growth inhibition, HOP-62; settings: Non-Small Cell Lung Cancer; note: test concentration or dose not given here
Experimental: as §1, §2

[5] = tested on: MDA-MB-468; experiment: NCI60 growth inhibition, MDA-MB-468; settings: Breast Cancer; note: test concentration or dose not given here
Experimental: as §1, §2

[6] = tested on: KM12; experiment: NCI60 growth inhibition, KM12; settings: Colon Cancer; note: test concentration or dose not given here
Experimental: as §1, §2

[7] = tested on: NCI-H460; experiment: NCI60 growth inhibition, NCI-H460; settings: Non-Small Cell Lung Cancer
Experimental: as §1, §2

[8] = tested on: HCC-2998; experiment: NCI60 growth inhibition, HCC-2998; settings: Colon Cancer
Experimental: as §1, §2

[9] = tested on: NCI/ADR-RES; experiment: NCI60 growth inhibition, NCI/ADR-RES; settings: Ovarian Cancer
Experimental: as §1, §2

[10] = tested on: U251; experiment: NCI60 growth inhibition, U251; settings: CNS Cancer
Experimental: as §1, §2

[11] = tested on: NCI-H322M; experiment: NCI60 growth inhibition, NCI-H322M; settings: Non-Small Cell Lung Cancer
Experimental: as §1, §2

[12] = tested on: HOP-92; experiment: NCI60 growth inhibition, HOP-92; settings: Non-Small Cell Lung Cancer
Experimental: as §1, §2

[13] = tested on: ACHN; experiment: NCI60 growth inhibition, ACHN; settings: Renal Cancer
Experimental: as §1, §2

[14] = tested on: EKVX; experiment: NCI60 growth inhibition, EKVX; settings: Non-Small Cell Lung Cancer
Experimental: as §1, §2

[15] = tested on: RPMI-8226; experiment: NCI60 growth inhibition, RPMI-8226; settings: Leukemia
Experimental: as §1, §2

[16] = tested on: MDA-MB-435; experiment: NCI60 growth inhibition, MDA-MB-435; settings: Melanoma
Experimental: as §1, §2

[17] = tested on: OVCAR-4; experiment: NCI60 growth inhibition, OVCAR-4; settings: Ovarian Cancer; note: test concentration or dose not given here
Experimental: as §1, §2

[18] = tested on: HCT-15; experiment: NCI60 growth inhibition, HCT-15; settings: Colon Cancer; note: test concentration or dose not given here
Experimental: as §1, §2

[19] = tested on: OVCAR-5; experiment: NCI60 growth inhibition, OVCAR-5; settings: Ovarian Cancer
Experimental: as §1, §2

[20] = tested on: MALME-3M; experiment: NCI60 growth inhibition, MALME-3M; settings: Melanoma
Experimental: as §1, §2

[21] = tested on: HCT-116; experiment: NCI60 growth inhibition, HCT-116; settings: Colon Cancer
Experimental: as §1, §2

[22] = tested on: K-562; experiment: NCI60 growth inhibition, K-562; settings: Leukemia
Experimental: as §1, §2

[23] = tested on: NCI-H522; experiment: NCI60 growth inhibition, NCI-H522; settings: Non-Small Cell Lung Cancer
Experimental: as §1, §2

[24] = tested on: SW-620; experiment: NCI60 growth inhibition, SW-620; settings: Colon Cancer; note: test concentration or dose not given here
Experimental: as §1, §2

[25] = tested on: COLO 205; experiment: NCI60 growth inhibition, COLO 205; settings: Colon Cancer
Experimental: as §1, §2

[26] = tested on: TK-10; experiment: NCI60 growth inhibition, TK-10; settings: Renal Cancer
Experimental: as §1, §2

[27] = tested on: CAKI-1; experiment: NCI60 growth inhibition, CAKI-1; settings: Renal Cancer; note: test concentration or dose not given here
Experimental: as §1, §2

[28] = tested on: NCI-H23; experiment: NCI60 growth inhibition, NCI-H23; settings: Non-Small Cell Lung Cancer
Experimental: as §1, §2

[29] = tested on: IGROV1; experiment: NCI60 growth inhibition, IGROV1; settings: Ovarian Cancer
Experimental: as §1, §2

[30] = tested on: SNB-19; experiment: NCI60 growth inhibition, SNB-19; settings: CNS Cancer; note: test concentration or dose not given here
Experimental: as §1, §2

[31] = tested on: T-47D; experiment: NCI60 growth inhibition, T-47D; settings: Breast Cancer
Experimental: as §1, §2

[32] = tested on: MCF7; experiment: NCI60 growth inhibition, MCF7; settings: Breast Cancer
Experimental: as §1, §2

[33] = tested on: SK-MEL-2; experiment: NCI60 growth inhibition, SK-MEL-2; settings: Melanoma; note: test concentration or dose not given here
Experimental: as §1, §2

[34] = tested on: 786-0; experiment: NCI60 growth inhibition, 786-0; settings: Renal Cancer
Experimental: as §1, §2

[35] = tested on: MOLT-4; experiment: NCI60 growth inhibition, MOLT-4; settings: Leukemia
Experimental: as §1, §2

[36] = tested on: UACC-257; experiment: NCI60 growth inhibition, UACC-257; settings: Melanoma; note: test concentration or dose not given here
Experimental: as §1, §2

[37] = tested on: SK-MEL-28; experiment: NCI60 growth inhibition, SK-MEL-28; settings: Melanoma
Experimental: as §1, §2

[38] = tested on: SF-295; experiment: NCI60 growth inhibition, SF-295; settings: CNS Cancer; note: test concentration or dose not given here
Experimental: as §1, §2

[39] = tested on: HS 578T; experiment: NCI60 growth inhibition, HS 578T; settings: Breast Cancer
Experimental: as §1, §2

[40] = tested on: SK-MEL-5; experiment: NCI60 growth inhibition, SK-MEL-5; settings: Melanoma
Experimental: as §1, §2

[41] = tested on: SF-268; experiment: NCI60 growth inhibition, SF-268; settings: CNS Cancer; note: test concentration or dose not given here
Experimental: as §1, §2

[42] = tested on: HL-60(TB); experiment: NCI60 growth inhibition, HL-60(TB); settings: Leukemia
Experimental: as §1, §2

[43] = tested on: HT29; experiment: NCI60 growth inhibition, HT29; settings: Colon Cancer
Experimental: as §1, §2

[44] = tested on: CCRF-CEM; experiment: NCI60 growth inhibition, CCRF-CEM; settings: Leukemia
Experimental: as §1, §2

[45] = tested on: DU-145; experiment: NCI60 growth inhibition, DU-145; settings: Prostate Cancer
Experimental: as §1, §2

[46] = tested on: OVCAR-3; experiment: NCI60 growth inhibition, OVCAR-3; settings: Ovarian Cancer
Experimental: as §1, §2

[47] = tested on: PC-3; experiment: NCI60 growth inhibition, PC-3; settings: Prostate Cancer
Experimental: as §1, §2

[48] = tested on: M14; experiment: NCI60 growth inhibition, M14; settings: Melanoma
Experimental: as §1, §2

[49] = tested on: SN12C; experiment: NCI60 growth inhibition, SN12C; settings: Renal Cancer
Experimental: as §1, §2

[50] = tested on: SK-OV-3; experiment: NCI60 growth inhibition, SK-OV-3; settings: Ovarian Cancer
Experimental: as §1, §2

[51] = tested on: UO-31; experiment: NCI60 growth inhibition, UO-31; settings: Renal Cancer
Experimental: as §1, §2

[52] = tested on: UACC-62; experiment: NCI60 growth inhibition, UACC-62; settings: Melanoma; note: test concentration or dose not given here
Experimental: as §1, §2

[53] = tested on: A498; experiment: NCI60 growth inhibition, A498; settings: Renal Cancer; note: test concentration or dose not given here
Experimental: as §1, §2

[54] = tested on: LOX IMVI; experiment: NCI60 growth inhibition, LOX IMVI; settings: Melanoma
Experimental: as §1, §2

[55] = tested on: SR; experiment: NCI60 growth inhibition, SR; settings: Leukemia
Experimental: as §1, §2

[56] = tested on: NCI-H226; experiment: NCI60 growth inhibition, NCI-H226; settings: Non-Small Cell Lung Cancer; note: test concentration or dose not given here
Experimental: as §1, §2

[57] = tested on: SNB-75; experiment: NCI60 growth inhibition, SNB-75; settings: CNS Cancer; note: test concentration or dose not given here
Experimental: as §1, §2

[58] = tested on: SF-539; experiment: NCI60 growth inhibition, SF-539; settings: CNS Cancer
Experimental: as §1, §2

SMILES: CN1CCN(c2cc(F)c(NC3=C(Cl)C(=O)c4ncccc4C3=O)c(F)c2)CC1 [Compound 1, 7-chloro-6-((2,6-difluoro-4-(4-methylpiperazin-1-yl)phenyl)amino)quinoline-5,8-dione]
- Growth inhibition (% control) GIPRCNT [1]: 74.56 % control
- Growth inhibition (% control) GIPRCNT [2]: −31.9795 % control
- Growth inhibition (% control) GIPRCNT [3]: 80.52 % control
- Growth inhibition (% control) GIPRCNT [4]: 83.28 % control
- Growth inhibition (% control) GIPRCNT [5]: −73.911 % control
- Growth inhibition (% control) GIPRCNT [6]: 82.37 % control
- Growth inhibition (% control) GIPRCNT [7]: 9.912 % control
- Growth inhibition (% control) GIPRCNT [8]: 61.85 % control
- Growth inhibition (% control) GIPRCNT [9]: 37.87 % control
- Growth inhibition (% control) GIPRCNT [10]: −9.877 % control
- Growth inhibition (% control) GIPRCNT [11]: 101.8249 % control
- Growth inhibition (% control) GIPRCNT [12]: −79.9407 % control
- Growth inhibition (% control) GIPRCNT [13]: −93.058 % control
- Growth inhibition (% control) GIPRCNT [14]: −82.6636 % control
- Growth inhibition (% control) GIPRCNT [15]: −20.7257 % control
- Growth inhibition (% control) GIPRCNT [16]: −75.7981 % control
- Growth inhibition (% control) GIPRCNT [17]: −99.2407 % control
- Growth inhibition (% control) GIPRCNT [18]: −8.531 % control
- Growth inhibition (% control) GIPRCNT [19]: −59.8079 % control
- Growth inhibition (% control) GIPRCNT [20]: −96.0656 % control
- Growth inhibition (% control) GIPRCNT [21]: −69.7462 % control
- Growth inhibition (% control) GIPRCNT [22]: −0.8345 % control
- Growth inhibition (% control) GIPRCNT [23]: −59.746 % control
- Growth inhibition (% control) GIPRCNT [24]: −76.6429 % control
- Growth inhibition (% control) GIPRCNT [25]: 33.98 % control
- Growth inhibition (% control) GIPRCNT [26]: 8.462 % control
- Growth inhibition (% control) GIPRCNT [27]: −85.6094 % control
- Growth inhibition (% control) GIPRCNT [28]: −61.2055 % control
- Growth inhibition (% control) GIPRCNT [29]: −90.4429 % control
- Growth inhibition (% control) GIPRCNT [30]: 96.33 % control
- Growth inhibition (% control) GIPRCNT [31]: −32.5382 % control
- Growth inhibition (% control) GIPRCNT [32]: −58.1831 % control
- Growth inhibition (% control) GIPRCNT [33]: −49.6035 % control
- Growth inhibition (% control) GIPRCNT [34]: −72.0362 % control
- Growth inhibition (% control) GIPRCNT [35]: −22.6883 % control
- Growth inhibition (% control) GIPRCNT [36]: −62.2412 % control
- Growth inhibition (% control) GIPRCNT [37]: −55.0718 % control
- Growth inhibition (% control) GIPRCNT [38]: 78.81 % control
- Growth inhibition (% control) GIPRCNT [39]: −16.4793 % control
- Growth inhibition (% control) GIPRCNT [40]: −91.7268 % control
- Growth inhibition (% control) GIPRCNT [41]: 48.73 % control
- Growth inhibition (% control) GIPRCNT [42]: −26.4294 % control
- Growth inhibition (% control) GIPRCNT [43]: 11.1525 % control
- Growth inhibition (% control) GIPRCNT [44]: −18.2389 % control
- Growth inhibition (% control) GIPRCNT [45]: −67.5681 % control
- Growth inhibition (% control) GIPRCNT [46]: −98.2241 % control
- Growth inhibition (% control) GIPRCNT [47]: 11.83 % control
- Growth inhibition (% control) GIPRCNT [48]: −40.5376 % control
- Growth inhibition (% control) GIPRCNT [49]: −97.4828 % control
- Growth inhibition (% control) GIPRCNT [50]: 82.67 % control
- Growth inhibition (% control) GIPRCNT [51]: −100 % control
- Growth inhibition (% control) GIPRCNT [52]: −45.6278 % control
- Growth inhibition (% control) GIPRCNT [53]: 80.11 % control
- Growth inhibition (% control) GIPRCNT [54]: −70.2674 % control
- Growth inhibition (% control) GIPRCNT [55]: −0.8134 % control
- Growth inhibition (% control) GIPRCNT [56]: 85.32 % control
- Growth inhibition (% control) GIPRCNT [57]: 38.01 % control
- Growth inhibition (% control) GIPRCNT [58]: −25.0889 % control
